Reference: US8632815B2 (Laila Pharmaceutical Pvt., Ltd., priority 2008, dated 2014)

Key:
[1] = test system: selenite-induced cataract in Wistar rat pups; experiment: In vivo anti-cataract efficacy, selenite-induced cataract
Protocol: Animals were grouped into Group I (control), Group II (sodium selenite) and Group III (treatment).
Two hours later Sodium Selenite (25 μM/kg·bw of 5 ml/kg·bw) was injected subcutaneously to both group II and III animals, thereafter 5 μl of LP002-09 was instilled topically to the eyes of group III animals only.
All animals were observed individually through out the observation period for any clinical signs and mortality. On the examination day i.e. when the pups first opened their eyes, the development of cataract was observed by the presence or absence of opacity by dilating the pupil with 0.8% tropicamide.
The cataract was scored on a scale of 0 to 4 according to procedure described by Muranov et al., (2004). Grade 0 was a normal clear lens, Grade 1 was a subcapsular opacity; Grade 2 was nuclear cataract, Grade 3 was strong nuclear cataract; Grade 4 was dense opacity involving entire lens and the results have been presented in below table 1

[2] = Particle size distribution, Malvern particle size analyzer; assay type: physicochemical; details: laser diffraction
Protocol: The study was conducted using Malvern particle size analyzer. The map of scattering intensity versus angle is the primary source of information used to calculate the particle size. The scattering of particles is accurately predicted by the Mie scattering model allowing accurate sizing across the widest possible dynamic range. During the laser diffraction measurement, particles are passed through a focused laser beam. These particles scatter light at an angle that is inversely proportional to their size. The angular intensity of the scattered light is then measured by a series of photosensitive detectors. The advantage of this study is that there is no sample preparation involved.
This is a clear indication that the process of nanoemulsification followed has effectively transformed the large sized particles to nanosized coated curcuminoid particles. Additional peaks can be observed which is contributed by the high molecular weight excipients used to prepare the formulation.

[3] = of 20 eyes, rat pups, sodium selenite s.c.

Structure (SMILES) | Total Percentage of cataract ([1]; 20 eyes, rat pups) [%] | Grade (Mean ± S.D.) ([1]; cataract scale 0 to 4, LP002-09 P < 0.0001 vs. Sodium Selenite treated) | Dense opacity involving entire lens, Score 4 (number of eyes) [1, 3] | No Opacity, Score 0 (number of eyes) [1, 3] | Nuclear cataract, Score 2 (number of eyes) [1, 3] | Strong Nuclear cataract, Score 3 (number of eyes) [1, 3] | Subcapsular opacity, Score 1 (number of eyes) [1, 3] | eyes with dense opacity type cataract ([1]; percent of eyes) [%] | eyes with nuclear cataract ([1]; percent of eyes) [%] | eyes with strong nuclear cataract ([1]; percent of eyes) [%] | particle size [2] [nm] | particle size ([2]; listed as curcumin) [nm]
O=[Se](O)O [Sodium Selenite] | 100 | 3.6 ± 0.68 | 14 | 0 | 2 | 4 | 0 | 70 | 10 | 20 | – | –
COc1cc(/C=C/C(=O)CC(=O)/C=C/c2ccc(O)c(OC)c2)ccc1O [unformulated curcumin 98%, Curcumin] | – | – | – | – | – | – | – | – | – | – | 373 | 374
